# Results: patent US6515025B2, “Use of ethynyl alanine amino diol compounds to inhibit enzymatic conversion of angiotensinogen to angiotensin I” (Pharmacia Corporation, priority 1991, dated 2003)
# Values joined by “and” are separate entries in the source; they are usually repeats but may differ in a detail not shown here. Equal entries are not always repeated.
# Assay: Oral bioavailability studies in marmosets (plasma concentration by bioassay)
# Format: in vivo
# Conditions: marmoset; for Plasma Concentrations: individual animals
# Description: The bioavailability in marmosets and dogs was determined by sampling the blood via the femoral vein at various time points after administering the renin inhibitor compounds of the invention in polyethylene glycol 400 at an intragastric dose of 10 mg/kg or at an intravenous dose of 1 mg/kg. Compound concentration in plasma was determined using the bioassay technique described below. The percent bioavailability was calculated by dividing the area under the concentration-vs.-time curve obtained from the intragastric experiment by the area under the concentration-vs.-time curve obtained from the intravenous experiment (adjusting for different doses), and multiplying the result by 100%. The bioavailibility of Example 1 compound is 27% in marmosets and 33% in dogs.
# Renin inhibitor plasma concentrations were determined by a bioassay. The plasma samples were extracted with acetonitrile and the extract was evaporated to dryness under nitrogen. Residue was dissolved in 4% bovine serum albumin containing 0.9% NaCl and 5% EDTA. The dissolved residue (0.1 ml) was incubated with a reaction mixture containing human plasma (0.12 ml), 5% phenylmethysulfonylfluoride (1.2 ul), 10% neomycin (2.4 ul), 0.5 M TES buffer (pH 7.4, 24 ul), and 0.6 mU/ml recombinant human renin (1000 U/mg, 50 ul) at 37° C. for 90 minutes. The renin activity was determined by a standard angiotensin I radioimmunoassay (New England Nuclear Corp.). The amount of test compound in the plasma was determined by comparing the extent of inhibition of renin activity with that produced by a known amount of test compound added to plasma and analyzed above.
structure (smiles),measurement,setting,value
"C#CC[C@H](NC(=O)C(CC(=O)N(C)CCN(C)C)Cc1ccccc1)C(=O)NC(CC1CCCCC1)[C@@H](O)C(O)CC(C)C (relative stereo) [Example 1, N1-[1R*-[[[1S,1R*-(cyclohexylmethyl)-2S*,3R*-dihydroxy-5-methylhexyl]amino]carbonyl]-3-butynyl]-N4-[2-(dimethylamino)ethyl]-N4-methyl-2S*-(phenylmethyl)butanediamide]",Plasma Concentrations,"IG at 10 mg/kg, Test Run A, 30 min, 10 mg/kg",7258 ng/mL and 9322 ng/mL
same,Plasma Concentrations,"IG at 10 mg/kg, Test Run A, 1 hr, 10 mg/kg",1989 ng/mL and 1751 ng/mL
same,Plasma Concentrations,"IG at 10 mg/kg, Test Run A, 2 hr, 10 mg/kg",1525 ng/mL and 1811 ng/mL
same,Plasma Concentrations,"IG at 10 mg/kg, Test Run A, 3 hr, 10 mg/kg",5289 ng/mL and 6935 ng/mL
same,Plasma Concentrations,"IG at 10 mg/kg, Test Run A, 4 hr, 10 mg/kg",742 ng/mL and 1766 ng/mL and 1217 ng/mL
same,Plasma Concentrations,"IG at 10 mg/kg, Test Run A, 5 hr, 10 mg/kg",369 ng/mL and 1397 ng/mL and 945 ng/mL
same,Plasma Concentrations,"IG at 10 mg/kg, Test Run A, 6 hr, 10 mg/kg",3177 ng/mL and 4412 ng/mL
same,Plasma Concentrations,"IG at 10 mg/kg, Test Run A, 8 hr, 10 mg/kg",3036 ng/mL and 3800 ng/mL
same,Plasma Concentrations,"IG at 10 mg/kg, Test Run B, 30 min, 10 mg/kg",1016 ng/mL and 1126 ng/mL
same,Plasma Concentrations,"IG at 10 mg/kg, Test Run B, 1 hr, 10 mg/kg",416 ng/mL and 5266 ng/mL and 12300 ng/mL
same,Plasma Concentrations,"IG at 10 mg/kg, Test Run B, 2 hr, 10 mg/kg",519 ng/mL and 4847 ng/mL and 13485 ng/mL
same,Plasma Concentrations,"IG at 10 mg/kg, Test Run B, 3 hr, 10 mg/kg",2751 ng/mL and 3640 ng/mL and 1400 ng/mL
same,Plasma Concentrations,"IG at 10 mg/kg, Test Run B, 4 hr, 10 mg/kg",459 ng/mL and 4502 ng/mL and 11470 ng/mL
same,Plasma Concentrations,"IG at 10 mg/kg, Test Run B, 5 hr, 10 mg/kg",545 ng/mL and 3718 ng/mL and 7783 ng/mL
same,Plasma Concentrations,"IG at 10 mg/kg, Test Run B, 6 hr, 10 mg/kg",2721 ng/mL and 1950 ng/mL
same,Plasma Concentrations,"IG at 10 mg/kg, Test Run B, 8 hr, 10 mg/kg",1566 ng/mL and 1868 ng/mL
same,Plasma Concentrations,"IV at 1 mg/kg, Test Run C, 2 min, 1 mg/kg",21579 ng/mL and 16641 ng/mL
same,Plasma Concentrations,"IV at 1 mg/kg, Test Run C, 15 min, 1 mg/kg",6756 ng/mL and 15283 ng/mL and 11628 ng/mL
same,Plasma Concentrations,"IV at 1 mg/kg, Test Run C, 30 min, 1 mg/kg",10359 ng/mL and 7921 ng/mL
same,Plasma Concentrations,"IV at 1 mg/kg, Test Run C, 1 hr, 1 mg/kg",2665 ng/mL and 2793 ng/mL
same,Plasma Concentrations,"IV at 1 mg/kg, Test Run C, 2 hr, 1 mg/kg",795 ng/mL and 2362 ng/mL and 1667 ng/mL
same,Plasma Concentrations,"IV at 1 mg/kg, Test Run C, 3 hr, 1 mg/kg",404 ng/mL and 562 ng/mL
same,Plasma Concentrations,"IV at 1 mg/kg, Test Run C, 4 hr, 1 mg/kg",608 ng/mL and 1223 ng/mL and 1068 ng/mL
same,Plasma Concentrations,"IV at 1 mg/kg, Test Run C, 6 hr, 1 mg/kg",208 ng/mL and 245 ng/mL
same,Plasma Concentrations,"IV at 1 mg/kg, Test Run D, 2 min, 1 mg/kg",7875 ng/mL and 5900 ng/mL
same,Plasma Concentrations,"IV at 1 mg/kg, Test Run D, 15 min, 1 mg/kg",7239 ng/mL and 2016 ng/mL and 897 ng/mL
same,Plasma Concentrations,"IV at 1 mg/kg, Test Run D, 30 min, 1 mg/kg",2356 ng/mL and 1189 ng/mL
same,Plasma Concentrations,"IV at 1 mg/kg, Test Run D, 1 hr, 1 mg/kg",1250 ng/mL and 1614 ng/mL and 3149 ng/mL
same,Plasma Concentrations,"IV at 1 mg/kg, Test Run D, 2 hr, 1 mg/kg",1004 ng/mL and 1055 ng/mL
same,Plasma Concentrations,"IV at 1 mg/kg, Test Run D, 3 hr, 1 mg/kg",451 ng/mL and 557 ng/mL and 1009 ng/mL
same,Plasma Concentrations,"IV at 1 mg/kg, Test Run D, 4 hr, 1 mg/kg",153 ng/mL and 587 ng/mL and 506 ng/mL
same,Plasma Concentrations,"IV at 1 mg/kg, Test Run D, 6 hr, 1 mg/kg",84 ng/mL and 158 ng/mL
same,concentration at 2 min,"plasma, iv, 1 mg/kg, IV at 1 mg/kg, 2 min, Test Run D table, read-out: Plasma Concentrations, Mean ± SE",11600 ± 2770 ng/mL
same,concentration at 15 min,"plasma, iv, 1 mg/kg, IV at 1 mg/kg, 15 min, Test Run D table, read-out: Plasma Concentrations, Mean ± SE",7300 ± 2250 ng/mL
same,concentration at 30 min,"plasma, iv, 1 mg/kg, IV at 1 mg/kg, 30 min, Test Run D table, read-out: Plasma Concentrations, Mean ± SE",4940 ± 1510 ng/mL
same,concentration at 1 h,"plasma, iv, 1 mg/kg, IV at 1 mg/kg, 1 hr, Test Run D table, read-out: Plasma Concentrations, Mean ± SE",2430 ± 326 ng/mL
